Assay results as given in US7141606B2, “Gabapentin analogues for sleep disorders” (Warner-Lambert Company, priority 2000, dated 2006).

Test system: Male Sprague-Dawley rats
Assay: EEG/EMG sleep recording in rats: time in NREMS for 12 hours after PO dosing
Assay type: in vivo, rat
Details: for Total Minutes (Mean ± SEM) NREMS for 12-Hour Postinjection: rats, N = 8/Treatment, just prior to onset of light phase
Procedure: Male Sprague-Dawley rats weighing 250 to 360 g were used for the experiment. The rats were kept on a 12:12-hr light/dark cycle (lights on at 0900) at 23±1° C. ambient temperature. They had free access water and food during the experiment. Stainless steel jewelry screws for EEG recording were placed over the frontal and parietal cortices. An EMG electrode was implanted in the dorsal neck muscles.
Recording and analyses. After the recovery period (at least 1 week), rats were moved to sleep recording chambers. The rats were allowed relatively unrestricted movement inside the recording cages. A flexible tether connected the electrodes led to an electronic swivel. The leads from the swivel were routed to Grass Model No. 7D polygraphs in an adjacent room for recording EEG and EMG activity. The vigilance states of wakefulness, nonrapid-eye-movement sleep (NREMS), and rapid-eye-movement sleep (REMS) were determined offline in 10 second epochs. The amount of time spent in each vigilance state was calculated every hour and totaled for the 12-hour period post injection. Drug or vehicle were administered PO just prior to the onset of the light phase of the rat's light/dark cycle. Each rat received a vehicle and one drug dose. Results

| Structure (SMILES) | Total Minutes (Mean ± SEM) NREMS for 12-Hour Postinjection (3 mg/kg PO) [min] | Total Minutes (Mean ± SEM) NREMS for 12-Hour Postinjection (10 mg/kg PO) [min] | Total Minutes (Mean ± SEM) NREMS for 12-Hour Postinjection (30 mg/kg PO) [min] | Effect on NREMS in rats during the 12-hour period following injection (rats, 3, 10, and 30 mg/kg PO) | Total Minutes (Mean ± SEM) NREMS for 12-Hour Postinjection (1 mg/kg PO) [min] | Effect on NREMS in rats during the 12-hour period following injection (rats, 1, 3, and 20 mg/kg PO) |
| --- | --- | --- | --- | --- | --- | --- |
| C[C@H]1CC(CN)(CC(=O)O)C[C@@H]1C [Compound 1] | 401 ± 8 | 409 ± 12 | 424 ± 6 | significantly increased NREMS |  |  |
| CCC[C@@H](C)C[C@H](CN)CC(=O)O [Compound 2, (3S, 5R)-3-Aminomethyl-5-methyl-octanoic acid] | 451 ± 9 | 481 ± 6 |  |  | 432 ± 8 | significantly increased NREMS |
